pIC50: −log10 of the molar value.
Molecular target: T1, human recombinant, purified wild type His-B-Raf protein kinase (Homo sapiens, UniProt P15056)
T1 construct: His
Test: B-Raf In Vitro ELISA Assay
Assay type: biochemical
Conditions: phosphorylation of MEK1; 2.5 nM B-Raf, 0.15 μM MEK1, 10 μM ATP
Procedure: B-Raf In Vitro ELISA Assay
Activity of human recombinant, purified wild type His-B-Raf protein kinase was determined in vitro using an enzyme-linked immunosorbent assay (ELISA) assay format, which measures phosphorylation of the B-Raf substrate, human recombinant, purified His-derived (detagged) MEK1. The reaction utilized 2.5 nM B-Raf, 0.15 μM MEK1 and 10 μM adenosine triphosphate (ATP) in 40 mM N-(2-hydroxyethyl)piperazine-N′-(2-ethanesulfonic acid hemisodium salt (HEPES), 5 mM 1,4-dithio-DL-threitol (DTT), 10 mM MgCl2, 1 mM ethylenediaminetetraacetic acid (EDTA) and 0.2M NaCl (1×HEPES buffer), with or without compound at various concentrations, in a total reaction volume of 25 μl in 384 well plates. B-Raf and compound were preincubated in 1×HEPES buffer for 1 hour at 25° C. Reactions were initiated with addition of MEK1 and ATP in 1×HEPES buffer and incubated at 25° C. for 50 minutes and reactions stopped by addition of 10 μl 175 mM EDTA (final concentration 50 mM) in 1×HEPES buffer. 5 μl of the assay mix was then diluted 1:20 into 50 mM EDTA in 1×HEPES buffer, transferred to 384 well black high protein binding plates and incubated for 12 h at 4° C. Plates were washed in tris buffered saline containing 0.1% Tween20 (TBST), blocked with 50 μl Superblock (Pierce) for 1 hour at 25° C., washed in TBST, incubated with 50 μl rabbit polyclonal anti-phospho-MEK antibody (Cell Signaling) diluted 1:1000 in TBS for 2 h at 25° C., washed with TBST, incubated with 50 μl goat anti-rabbit horseradish peroxidase-linked antibody (Cell Signaling) diluted 1:2000 in TBS for 1 hour at 25° C. and washed with TBST. 50 μl of fluorogenic peroxidase substrate (Quantablu—Pierce) was added and following incubation for 45-60 mins, 50 μl QuantabluSTOP (Pierce) was added. Blue fluorescent product was detected at excitation 325 nm and emission 420 nm using a TECAN Ultra plate reader. Data was graphed and IC50s calculated using Excel Fit (Microsoft).

T1 sequence (P15056 whole entry): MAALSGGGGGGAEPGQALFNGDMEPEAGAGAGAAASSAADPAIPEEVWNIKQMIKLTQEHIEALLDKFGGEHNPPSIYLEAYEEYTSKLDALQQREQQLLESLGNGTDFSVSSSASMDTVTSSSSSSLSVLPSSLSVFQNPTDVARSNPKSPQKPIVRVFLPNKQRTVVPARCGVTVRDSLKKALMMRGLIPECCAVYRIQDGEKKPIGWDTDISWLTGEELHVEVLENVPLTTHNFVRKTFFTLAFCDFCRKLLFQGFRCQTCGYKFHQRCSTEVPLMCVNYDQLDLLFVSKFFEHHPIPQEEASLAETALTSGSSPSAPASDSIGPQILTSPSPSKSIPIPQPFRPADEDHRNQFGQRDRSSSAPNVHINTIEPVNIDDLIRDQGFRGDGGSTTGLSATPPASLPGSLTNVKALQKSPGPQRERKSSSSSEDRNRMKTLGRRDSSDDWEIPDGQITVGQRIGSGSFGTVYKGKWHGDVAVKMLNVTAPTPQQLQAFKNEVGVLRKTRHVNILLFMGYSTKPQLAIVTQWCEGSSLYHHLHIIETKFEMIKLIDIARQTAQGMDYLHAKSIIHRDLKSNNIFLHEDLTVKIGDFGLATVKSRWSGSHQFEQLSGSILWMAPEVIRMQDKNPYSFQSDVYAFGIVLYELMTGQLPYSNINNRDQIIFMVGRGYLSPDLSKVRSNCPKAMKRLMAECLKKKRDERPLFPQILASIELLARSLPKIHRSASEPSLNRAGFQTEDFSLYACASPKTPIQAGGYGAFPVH

Question: With `Cc1nc2ccc(Nc3cc(NC(=O)c4cccc(C(C)(C)C#N)c4)ccc3C)cc2c(=O)[nH]1` [Example 4, 3-(1-Cyano-1-methylethyl)-N-{4-methyl-3-[(2-methyl-4-oxo-3,4-dihydroquinazolin-6-yl)amino]phenyl}-benzamide] as the molecule, how does the pIC50 read?
Answer: 6.73

Question: With `Cc1ccc(NC(=O)c2cccc(C(C)(C)C#N)c2)cc1Nc1ccc2ncn(CCCN3CCOCC3)c(=O)c2c1` [Example 7, 3-(1-Cyano-1-methylethyl)-N-(4-methyl-3-{[3-(3-morpholin-4-ylpropyl)-4-oxo-3,4-dihydroquinazolin-6-yl]amino}phenyl)-benzamide] as the molecule, how does the pIC50 read?
Answer: 6.46

Question: With `Cc1ccc(NC(=O)c2cccc(C(C)(C)C#N)c2)cc1N(C)c1ccc2ncn(C)c(=O)c2c1` [Example 33, 3-(Cyano-dimethyl-methyl)-N-{4-methyl-3-[methyl-(3-methyl-4-oxo-3,4-dihydro-quinazolin-6-yl)-amino]-phenyl}-beazamide] as the molecule, how does the pIC50 read?
Answer: 5.71

From patent publication US20090118261A1, “QUINAZOLINONE DERIVATIVES AND THEIR USE AS B-RAF INHIBITORS” (ASTRAZENECA AB, priority 2004, published 2009)
